Tested on: gene promoters in NT2/D1-R1 control and DNMT3B knockdown cells
Test: Genome-wide promoter methylation analysis, HumanMethylation27 BeadChip (Table 15)
Format: cell-based, human
Details: sh-ctrl + 5aza
Experimental: DNA methylation analysis was performed in samples in triplicate using the […] […] assay with the HumanMethylation27 BeadChip ([…]) and the BeadChip was scanned on the BeadArray Reader ([…]), according to the manufacturer's instructions. Raw data was normalized and analyzed with Genome Studio software ([…]). The HumanMethylation27 BeadChip assays 27,578 CpGs covering more than 14,000 genes, mostly from promoter regions. […] Hierarchical clustering was performed as stated above. HumanMethylation27 BeadChip data and gene expression microarray data were submitted to NCBI GEO.

SMILES: Nc1ncn([C@H]2C[C@H](O)[C@@H](CO)O2)c(=O)n1 [5aza]
- SERPING1 cg12783776 promoter methylation Mean: 0.601
- SFRS16 cg19317638 promoter methylation Mean: 0.560
- SFXN3 cg04880063 promoter methylation Mean: 0.170
- SH3BGRL2 cg03080985 promoter methylation Mean: 0.398
- SHH cg25167838 promoter methylation Mean: 0.175
- SKIP cg04072323 promoter methylation Mean: 0.432
- SLC30A2 cg05674944 promoter methylation Mean: 0.658
- SMCP cg09542291 promoter methylation Mean: 0.705
- SNX9 cg26845300 promoter methylation Mean: 0.985
- SOX17 cg21226224 promoter methylation Mean: 0.858
- SPRR1B cg24884084 promoter methylation Mean: 0.488
- SSH1 cg11747499 promoter methylation Mean: 0.529
- SSTR1 cg27590397 promoter methylation Mean: 1.209
- TAC1 cg07550362 promoter methylation Mean: 0.798
- TADA3L cg09279263 promoter methylation Mean: 0.445
- TERT cg02545192 promoter methylation Mean: 0.547
- TNFSF10 cg16555388 promoter methylation Mean: 0.687
- TNRC4 cg26093148 promoter methylation Mean: 0.866
- TNRC15 cg07230446 promoter methylation Mean: 0.425
- TRAF3 cg24165760 promoter methylation Mean: 0.878
- TRIM2 cg12793610 promoter methylation Mean: 0.815
- TRIM36 cg10693071 promoter methylation Mean: 0.822
- TRPM3 cg20555507 promoter methylation Mean: 0.413
- UNC5D cg00297600 promoter methylation Mean: 0.612
- WDR13 cg25053301 promoter methylation Mean: 0.317
- ZFHX1B cg15377518 promoter methylation Mean: 0.680
- ZNF222 cg09757277 promoter methylation Mean: 0.431
- cg07512517 promoter methylation Mean: 0.619
- Mean promoter methylation, ABCA3 cg02331561 (NT2/D1-R1 control cells): 0.189
- Mean promoter methylation, ABLIM3 cg05026186 (NT2/D1-R1 control cells): 0.365
- Mean promoter methylation, ACTL6B cg08572611 (NT2/D1-R1 control cells): 0.210
- Mean promoter methylation, ANKRD46 cg23737055 (NT2/D1-R1 control cells): 0.329
- Mean promoter methylation, ARNT2 cg17788682 (NT2/D1-R1 control cells): 0.212
- Mean promoter methylation, B4GALNT3 cg05769161 (NT2/D1-R1 control cells): 0.577
- Mean promoter methylation, BTBD1 cg16958189 (NT2/D1-R1 control cells): 0.392
- Mean promoter methylation, C1RL cg22593785 (NT2/D1-R1 control cells): 0.347
- Mean promoter methylation, C10orf10 cg17186163 (NT2/D1-R1 control cells): 0.371
- Mean promoter methylation, C10orf72 cg02569613 (NT2/D1-R1 control cells): 0.553
- Mean promoter methylation, C12orf34 cg01335367 (NT2/D1-R1 control cells): 0.987
- Mean promoter methylation, C17orf40 cg18042079 (NT2/D1-R1 control cells): 0.207
- Mean promoter methylation, C19orf30 cg07456645 (NT2/D1-R1 control cells): 0.552
- Mean promoter methylation, C20orf29 cg09158909 (NT2/D1-R1 control cells): 0.322
- Mean promoter methylation, C22orf9 cg11221513 (NT2/D1-R1 control cells): 0.402
- Mean promoter methylation, CACNA1G cg18454685 (NT2/D1-R1 control cells): 0.587
- Mean promoter methylation, CAMKK2 cg01369981 (NT2/D1-R1 control cells): 0.344
- Mean promoter methylation, CART cg23300372 (NT2/D1-R1 control cells): 0.445
- Mean promoter methylation, CCKBR cg13346411 (NT2/D1-R1 control cells): 0.411
- Mean promoter methylation, CDC42EP1 cg13951472 (NT2/D1-R1 control cells): 0.342
- Mean promoter methylation, CDKN2A cg10895543 (NT2/D1-R1 control cells): 0.249
- Mean promoter methylation, CHST8 cg24739326 (NT2/D1-R1 control cells): 0.660
- Mean promoter methylation, CPSF1 cg20326853 (NT2/D1-R1 control cells): 0.408
- Mean promoter methylation, CSMD1 cg22619018 (NT2/D1-R1 control cells): 0.365
- Mean promoter methylation, DCTN3 cg22579849 (NT2/D1-R1 control cells): 0.613
- Mean promoter methylation, DDX42 cg05797656 (NT2/D1-R1 control cells): 0.226
- Mean promoter methylation, DGKD cg25506396 (NT2/D1-R1 control cells): 0.238
- Mean promoter methylation, DGKI cg06277657 (NT2/D1-R1 control cells): 0.365
- Mean promoter methylation, DKK2 cg01404615 (NT2/D1-R1 control cells): 0.819
- Mean promoter methylation, DUSP8 cg02271621 (NT2/D1-R1 control cells): 0.296
- Mean promoter methylation, EHD2 cg12603043 (NT2/D1-R1 control cells): 0.398
- Mean promoter methylation, ELK1 cg21860846 (NT2/D1-R1 control cells): 0.343
- Mean promoter methylation, EMP3 cg01795122 (NT2/D1-R1 control cells): 0.187
- Mean promoter methylation, EYA4 cg01805282 (NT2/D1-R1 control cells): 0.360
- Mean promoter methylation, FAM70B cg15350194 (NT2/D1-R1 control cells): 0.396
- Mean promoter methylation, FAM73B cg00729541 (NT2/D1-R1 control cells): 0.365
- Mean promoter methylation, FCHSD2 cg17114257 (NT2/D1-R1 control cells): 0.423
- Mean promoter methylation, FLJ20273 cg01704534 (NT2/D1-R1 control cells): 0.410
- Mean promoter methylation, FLJ20273 cg15967525 (NT2/D1-R1 control cells): 0.759
- Mean promoter methylation, FLJ42486 cg03734874 (NT2/D1-R1 control cells): 0.711
- Mean promoter methylation, GAB3 cg12938998 (NT2/D1-R1 control cells): 0.347

From patent US9476099B2 (TRUSTEES OF DARTMOUTH COLLEGE, priority 2012, dated 2016)
